Laboratory results taken from patent US7932384B2, “Reverse-turn mimetics and method relating thereto” (Choongwae Pharma Corporation, priority 2001, dated 2011).
Values after ≈ are worked out from the molar mass of the structure shown. Where two headings read alike, the source gives them in different places.

Legend:
physchem = conditions: 37 °C, thermodynamic from solid
HCT116 cells = assay: Growth inhibition assay (MTS or sulforhodamine B), HCT116; type: cell-based; conditions: Homo sapiens, HCT-116, 48 h, Table 5, MTS or sulforhodamine B assay, HCT116, 48 hours
SW480 cells = assay: Growth inhibition assay (MTS or sulforhodamine B), SW480; type: cell-based; conditions: Homo sapiens
[1] = system: TCF4/β-catenin transcriptional pathway; assay: Reporter gene assay (TOPFlash luciferase) in SW480 cells; type: cell-based; conditions: Homo sapiens
Protocol: SW480 cells were transfected with the usage of Superfect™ transfect reagent (Qiagen, 301307). Cells were trypsinized briefly 1 day before transfection and plated on 6 well plate (5×10^5 cells/well) so that they were 50-80% confluent on the day of transfection.
Four microgram (TOPFlash) and one microgram (pRL-null) of DNAs were diluted in 150 μl of serum-free medium, and 30 μl of Superfect™ transfect reagent was added. The DNA-Superfect mixture was incubated at room temperature for 15 min, and then, 1 ml of 10% FBS DMEM was added to this complex for an additional 3 hours of incubation. While complexes were forming, cells were washed with PBS twice without antibiotics.
The DNA-Superfect™ transfect reagent complexes were applied to the cells before incubating at 37° C. at 5% CO2 for 3 hours. After incubation, recovery medium with 10% FBS was added to bring the final volume to 1.18 ml. After 3 hours incubation, the cells were harvested and reseeded to 96 well plate (3×10^4 cells/well). After overnight incubation at 37° C. at 5% CO2, the cells were treated with Compound A for 24 hours. Finally, the activity was checked by means of luciferase assay (Promega, E1960).

survivin promoter = assay: Survivin luciferase reporter in SW480 cells; type: cell-based; conditions: Homo sapiens, SW480, read-out: RGA, Survivin IC50, uM, Table 10, prodrug compounds, reporter gene assay survivin
TCF4 = assay: Effects of compounds on TCF4 expression (Table 9); type: cell-based
Description: (§1) The effects of various compounds having general formula (I) on surviving and TCF4 expression were characterized.

survivin = assay: Effects of compounds on survivin expression (Table 9); type: cell-based; conditions: for inhibition at 25 µM: Table 9, 25 uM; for inhibition at 5 µM: read-out: Survivin % inhibition 5 uM, Table 9, 5 uM
Description: A plasmid containing luciferase under the control of surviving promoter was constructed and transfected into wild type, CBP+/−, or p300+/−3T3 cells.
as §1

min mouse = assay: Min mouse model (polyp number); type: in vivo; conditions: for % Inhibition vs. VH: total polyp number
Protocol: Selected compounds of the present invention (Compound B and Compound C) were evaluated in the min mouse model to evaluate their efficacy as anti-cancer agents.
The min mouse model is a widely used model to test for this type of efficacy. The numbers of polyp formed in small intestine and colon of these mice after various treatments were measured (Table 7).

293 = assay: Sulforhodamine B (SRB) assay, 293; type: cell-based; conditions: Homo sapiens, HEK293; Renal, 293, 48 hours
Protocol: Growth inhibitory effect of Compound A on the cells listed below was measured by the sulforhodamine B assay. SW480 cells in 100 μl media were plated in each well of 96-well plate and allowed to attach for 24 hours. Compound A was added to the wells to produce the desired final concentrations, and the plates were incubated at 37° C. for 48 hours. The cells were then fixed by gentle addition of 100 μl of cold (4° C.) 10% trichloroacetic acid to each well, followed by incubation at 4° C. for 1 hour. Plates were washed with deionized water five times and allowed to air dry. The cells were then stained by addition of 100 μl SRB solution (0.4% SRB(w/v) in 1% acetic acid (v/v)) to wells for 15 min. After staining, the plates were quickly washed five times with 1% acetic acid to remove any unbound dye, and allowed to air dry. Bound dye was solubilized with 10 mmol/L Tris base (pH 10.5) prior to reading the plates. The optical density (OD) was read on a plate reader at a wavelength of 515 nm with Molecular Device. Inhibition of growth was expressed as relative viability (% of control) and GI50 was calculated from concentration-response curves after log/probit transformation.
The values in Table 6 are in μg/ml.

surviving protein = assay: Western blot analysis of survivin protein; type: cell-based; conditions: 5 μM
[2] = pH 1.2, simulated gastric fluid, Solubility JP1 (pH 1.2), 0 hr
[3] = pH 1.2, simulated gastric fluid, Solubility JP1 (pH 1.2), 2 hr
[4] = pH 1.2, simulated gastric fluid, Solubility JP1 (pH 1.2), 20 hr
[5] = pH 6.8, fassgf or other biorelevant, Solubility JP2 (pH 6.8), 0 hr
[6] = pH 6.8, fassgf or other biorelevant, Solubility JP2 (pH 6.8), 2 hr
[7] = pH 6.8, fassgf or other biorelevant, Solubility JP2 (pH 6.8), 20 hr
[8] = SW480, 48 h, Table 5, MTS or sulforhodamine B assay, SW480, 48 hours, read-out: Growth Inhibition (GI50, uM) SW480
[9] = SW480, Table 4, selected library compounds, Reporter gene assay as described in Example 6, read-out: IC50

SMILES	solubility (physchem; [2]) [mg/mL]	solubility (physchem; [3]) [mg/mL]	solubility (physchem; [4]) [mg/mL]	solubility (physchem; [5]) [mg/mL]	solubility (physchem; [6]) [mg/mL]	solubility (physchem; [7]) [mg/mL]	other results
CN(C)c1cc(F)c(F)cc1CN1C[C@H]2N(C(=O)CN(C)N2C(=O)NCc2ccccc2)[C@@H](Cc2ccc(OP(=O)([O-])[O-])cc2)C1=O.[Na+].[Na+] [Compound 10]	2.29	2.27	2.33	2.03	2.06	2.03	
CN1CC(=O)N2[C@@H](Cc3ccc(O)cc3)C(=O)N(Cc3ccc(F)cc3F)C[C@@H]2N1C(=O)NCc1ccccc1 [Compound 13]							GI50 (HCT116 cells): 1.59 µM; GI50 (SW480 cells; [8]): 1.65 µM
CN1CC(=O)N2[C@@H](Cc3ccc(OP(=O)([O-])[O-])cc3)C(=O)N(Cc3ccc(F)cc3F)C[C@@H]2N1C(=O)NCc1ccccc1.[Na+].[Na+] [Compound 4]	0.554	0.646	0.756	1.98	2.01	2.03	
C=CCN1CC(=O)N2[C@@H](Cc3ccc(OP(=O)([O-])[O-])cc3)C(=O)N(Cc3ccc(Cl)c4cccnc34)C[C@@H]2N1C(=O)NCc1ccccc1.[Na+].[Na+] [Compound 7]	0.309	0.446	0.521	2.15	2.22	2.24	
CN1CC(=O)N2[C@@H](Cc3ccc(O)cc3)CN(Cc3ccc(F)cc3F)C[C@@H]2N1C(=O)NCc1ccccc1 [Compound 77]							GI50 (HCT116 cells): 10.7 ± 0.8 µM; GI50 (SW480 cells; [8]): 26.5 ± 6.5 µM
CN1CC(=O)N2[C@@H](Cc3ccc(OP(=O)([O-])[O-])cc3)C(=O)N(Cc3cccc4cccnc34)C[C@@H]2N1C(=O)NCc1ccccc1.[Na+].[Na+] [Compound 9]	2.25	2.27	2.4	2.32	2.35	2.42	
C=CCN1CC(=O)N2[C@@H](Cc3ccc(O)cc3)C(=O)N(Cc3ccc(F)cc3F)C[C@@H]2N1C(=O)NCc1ccccc1 [Compound 115]							GI50 (HCT116 cells): 1.1 ± 0.04 µM; GI50 (SW480 cells; [8]): 2 ± 0.7 µM
CN1CC(=O)N2[C@@H](Cc3ccc(OP(=O)(O)O)cc3)C(=O)N(Cc3cccc4ccccc34)C[C@@H]2N1C(=O)NCc1ccccc1 [Compound 1]							solubility (physchem; pH 1.2, simulated gastric fluid, Solubility JP1 (pH 1.2)): 0.0601 mg/mL (≈ 93.4 µM); solubility (physchem; pH 6.8, fassgf or other biorelevant, Solubility JP2 (pH 6.8)): 1.8 mg/mL (≈ 2790 µM); IC50 ([1]; SW480, Table 10, prodrug compounds, reporter gene assay TopFlash, read-out: RGA, TopF IC50): 4.2 µM; IC50 (survivin promoter): 6.4 µM; GI50 (SW480 cells; SW480, Table 10, prodrug compounds, SW480, read-out: MTS, SW480 (uM) GI50): 2 µM
CN1CC(=O)N2[C@@H](Cc3ccc(O)cc3)C(=O)N(Cc3cccc4c3cnn4CCN3CCOCC3)C[C@@H]2N1C(=O)NCc1ccccc1 [Compound 73]							GI50 (HCT116 cells): 15.8 ± 2.6 µM; GI50 (SW480 cells; [8]): 9.2 ± 0.8 µM
CN1CC(=O)N2[C@@H](CN(Cc3cccc4ccccc34)C(=O)[C@@H]2Cc2ccc(O)cc2)N1C(=O)NCc1ccccc1							IC50 (TCF4): ~2 µM; inhibition at 25 µM (survivin): 99%; inhibition at 5 µM (survivin): 100%
C=CCN1CC(=O)N2[C@@H](Cc3ccc(OP(=O)([O-])[O-])cc3)C(=O)N(Cc3ccc(F)cc3F)C[C@@H]2N1C(=O)NCc1ccccc1.[Na+].[Na+] [Compound 8]	0.671	0.775	0.921	2.29	2.32	2.27	
CN1CC(=O)N2[C@@H](Cc3ccc(O)cc3)C(=O)N(Cc3cccc4cccnc34)C[C@@H]2N1C(=O)NCc1ccccc1 [Compound B]							Polyp Number (Mean ± S.D.) Colon (min mouse; 300 mpk): 1.4 ± 0.9; Polyp Number (Mean ± S.D.) Small Intestine (min mouse; 300 mpk): 45.2 ± 22.1; Polyp Number (Mean ± S.D.) Total (min mouse; 300 mpk): 46.8 ± 17.0; % Inhibition vs. VH (min mouse; 300 mpk): 31%
CN1CC(=O)N2[C@@H](CN(Cc3c(Cl)cc(Cl)c4cccnc34)C(=O)[C@@H]2Cc2ccc(O)cc2)N1C(=O)NCc1ccccc1							IC50 (TCF4): 11.2 ± 1.5 µM; inhibition at 25 µM (survivin): 58%; inhibition at 5 µM (survivin): 6%
CN1CC(=O)N2[C@@H](Cc3ccc(OP(=O)(O)O)cc3)C(=O)N(Cc3cccc4cnn(C)c34)C[C@@H]2N1C(=O)NCc1ccccc1 [Compound 5]	0.406 (≈ 627 µM)	0.532 (≈ 821 µM)	0.684 (≈ 1060 µM)	1.76 (≈ 2720 µM)	1.78 (≈ 2750 µM)	1.76 (≈ 2710 µM)	
CN(C)c1cc(CN2C[C@H]3N(C(=O)CN(C)N3C(=O)NCc3ccccc3)[C@@H](Cc3ccc(OP(=O)([O-])[O-])cc3)C2=O)ccc1Cl.[Na+].[Na+] [Compound 11]	2.01	2	2	1.64	1.65	1.65	
C=CCN1CC(=O)N2[C@@H](Cc3ccc(O)cc3)C(=O)N(Cc3ccc(F)cc3F)[C@@H](C)[C@@H]2N1C(=O)NCc1ccccc1 [Compound 147]							GI50 (HCT116 cells): 5.5 ± 0.4 µM; GI50 (SW480 cells; [8]): 6.1 ± 0.4 µM
C=CCN1CC(=O)N2[C@@H](Cc3ccc(OP(=O)([O-])[O-])cc3)C(=O)N(Cc3cccc4cccnc34)C[C@@H]2N1C(=O)NCc1ccccc1.[Na+].[Na+] [Compound 6]	1.45	1.72	1.79	1.83	1.86	1.87	
C=CCN1CC(=O)N2[C@@H](Cc3ccc(OP(=O)(O)O)cc3)C(=O)N(Cc3cccc4c3OCCN4C)C[C@@H]2N1C(=O)NCc1ccccc1 [Compound 169]							IC50 [1, 9]: 1 ± 0.1 µM
CN(C)c1cc(F)ccc1CN1C[C@H]2N(C(=O)CN(C)N2C(=O)NCc2ccccc2)[C@@H](Cc2ccc(OP(=O)(O)O)cc2)C1=O [Compound 3]	1.88 (≈ 2870 µM)	1.97 (≈ 3010 µM)	2.04 (≈ 3110 µM)	1.32 (≈ 2020 µM)	1.9 (≈ 2910 µM)	2 (≈ 3060 µM)	
COC(=O)N1C2CN(CCc3ccc(F)cc3)C(=O)C(Cc3cccc4ccccc34)N2C(=O)CN1Cc1ccccc1 (stereo not drawn) [Compound 1]							IC50 [1, 9]: 12.8 µM
CN1CC(=O)N2[C@@H](Cc3ccc(O)cc3)C(=O)N(Cc3cccc4ccccc34)C[C@@H]2N1C(=O)NCc1ccccc1 [Compound 1]							GI50 (HCT116 cells): 1.78 µM; GI50 (SW480 cells; [8]): 2.28 µM
O=c1[nH]cc(F)c(=O)[nH]1 [Compound 5-FU, 5-fluorouracil, reference compound]							GI50 293: 2.02 mg/L (≈ 15.5 µM); amount of survivin protein (Western blot) (surviving protein): reduced the amount of the surviving protein
CC1=C(CC(=O)O)c2cc(F)ccc2/C1=C\c1ccc([S+](C)[O-])cc1 (stereo not drawn) [Sulindac]							Polyp Number (Mean ± S.D.) Colon (min mouse; 160 ppm): 0.5 ± 0.5; Polyp Number (Mean ± S.D.) Small Intestine (min mouse; 160 ppm): 48.0 ± 20.7; Polyp Number (Mean ± S.D.) Total (min mouse; 160 ppm): 48.5 ± 20.9; % Inhibition vs. VH (min mouse; 160 ppm): 28%
CCOP(=O)(CC(=O)Nc1ccc(C[C@H]2C(=O)N(Cc3cccc4ccccc34)C[C@H]3N2C(=O)CN(C)N3C(=O)NCc2ccccc2)cc1)OCC [Compound 59]							GI50 (SW480 cells; [8]): > 50 µM
